# Patent US12698507B2, “Methods and compositions for conferring and/or enhancing herbicide tolerance using protoporphyrinogen IX oxidase of various cyanobacteria or variant thereof” (FarmHannong Co., Ltd., priority 2019, dated 2026)
# Where two headings read alike, the source gives them in different places.
# Legend:
# [1] = test system: PPO-deficient BT3 E. coli (ΔPPO) transformed with CyPPO18 variant V165C+A167L+F360I (Thermosynechococcus vulcanus NIES-2134, SEQ ID NO: 3); assay: Herbicide tolerance test in E. coli, CyPPO18 V165C+A167L+F360I; type: cell-based; design: key to the marks not given beside the values; settings: LB agar, 0 to 2,000 μM herbicide, 37° C., 16-20 hours
# Text: (§1) To enhance the PPO-inhibiting herbicide resistance of CyPPO19 and CyPPO18, PPO variant genes of the above example 2 were constructed. They were transformed to BT3 (ΔPPO) strain which is deficient of PPO activity and cultured in LB media with PPO-inhibiting herbicide, thereby examining whether growth of transformed BT3 was not inhibited.
# (§2) BT3 competent cells were transformed with the pET303-CyPPO19 (wild type), pET303-CyPPO18 (wild type) plasmids, and those with a mutation(s) constructed (refer to example 2) via heat shock method, and were cultured in LB agar media containing ampicillin.
# (§3) Single colony transformed with each CyPPO gene was cultured in 3 mL of LB broth (LPSS) containing ampicillin for more than 12 hours, and then was subcultured in LB broth until absorbance (OD600) reached 0.5 to 1. Then, it was diluted with LB broth to OD600=0.5. Again, the diluted solution was serially diluted 4 times by a factor of one tenth. […]
# (§4) Then, 10 μL of each diluted solution of E. coli was dropped on the plate and cultured at 37° C. under dark for 16-20 hours. PPO-inhibiting herbicide resistance was evaluated with the extent of E. coli growth containing each gene was observed.
# (§5) The extent of herbicide resistance was evaluated by the relative growth of variants to that of wild type, and listed in Tables 9 and 10 and FIGS. 3 to 32. […]
# [2] = test system: PPO-deficient BT3 E. coli (ΔPPO) transformed with CyPPO19 variant R89A+F360V (Thermosynechococcus elongatus PKUAC-SCTE542, SEQ ID NO: 1); assay: Herbicide tolerance test in E. coli, CyPPO19 R89A+F360V; type: cell-based; settings: LB agar, 0 to 2,000 μM herbicide, 37° C., 16-20 hours
# Text: as §1, §2, §3, §4, §5
# [3] = test system: PPO-deficient BT3 E. coli (ΔPPO) transformed with CyPPO18 variant R89A+V165C+F360I (Thermosynechococcus vulcanus NIES-2134, SEQ ID NO: 3); assay: Herbicide tolerance test in E. coli, CyPPO18 R89A+V165C+F360I; type: cell-based; design: key to the marks not given beside the values; settings: LB agar, 0 to 2,000 μM herbicide, 37° C., 16-20 hours
# Text: as §1, §2, §3, §4, §5
# [4] = target: Thermosynechococcus vulcanus NIES-2134 protoporphyrinogen IX oxidase CyPPO18 (SEQ ID NO: 3) variant R89A (MBP fusion) (Thermosynechococcus vestitus, UniProt Q8DLV2, R89A); assay: PPO enzyme inhibition assay (IC50 for herbicides), CyPPO18 R89A fused to MBP; type: biochemical; settings: 50 μM protoporphyrinogen IX, pH 7.5, room temperature, 30 min
# [5] = target: Thermosynechococcus elongatus PKUAC-SCTE542 protoporphyrinogen IX oxidase CyPPO19 (SEQ ID NO: 1) variant A167C (MBP fusion) (Thermosynechococcus sichuanensis, UniProt A0A7D6JSC1, A167C); assay: biochemical
# [6] = target: T1, Thermosynechococcus elongatus PKUAC-SCTE542 protoporphyrinogen IX oxidase CyPPO19, wild type, SEQ ID NO: 1 (MBP fusion) (Thermosynechococcus sichuanensis, UniProt A0A7D6JSC1); assay: PPO enzyme inhibition assay (IC50 for herbicides), CyPPO19 wild type fused to MBP; type: biochemical
# T1 sequence (A0A7D6JSC1 1-467): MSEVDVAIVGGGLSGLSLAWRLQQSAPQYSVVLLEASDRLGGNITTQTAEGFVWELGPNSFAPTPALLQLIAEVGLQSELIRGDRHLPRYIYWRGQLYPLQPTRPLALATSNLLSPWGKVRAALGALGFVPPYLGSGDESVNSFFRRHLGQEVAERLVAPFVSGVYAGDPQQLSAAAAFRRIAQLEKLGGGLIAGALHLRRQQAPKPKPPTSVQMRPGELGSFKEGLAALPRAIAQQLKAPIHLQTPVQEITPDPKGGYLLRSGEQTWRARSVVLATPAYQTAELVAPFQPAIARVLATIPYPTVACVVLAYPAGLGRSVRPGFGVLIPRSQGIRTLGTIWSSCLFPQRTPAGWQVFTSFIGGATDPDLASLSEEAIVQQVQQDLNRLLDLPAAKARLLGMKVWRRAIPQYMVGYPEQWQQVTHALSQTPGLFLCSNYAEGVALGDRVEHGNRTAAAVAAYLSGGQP
# [7] = test system: PPO-deficient BT3 E. coli (ΔPPO) transformed with CyPPO19 variant V165C+F360M (Thermosynechococcus elongatus PKUAC-SCTE542, SEQ ID NO: 1); assay: Herbicide tolerance test in E. coli, CyPPO19 V165C+F360M; type: cell-based; settings: LB agar, 0 to 2,000 μM herbicide, 37° C., 16-20 hours
# Text: as §1, §2, §3, §4, §5
# [8] = test system: PPO-deficient BT3 E. coli (ΔPPO) transformed with CyPPO19 variant R89A+F360T (Thermosynechococcus elongatus PKUAC-SCTE542, SEQ ID NO: 1); assay: Herbicide tolerance test in E. coli, CyPPO19 R89A+F360T; type: cell-based; settings: LB agar, 0 to 2,000 μM herbicide, 37° C., 16-20 hours
# Text: as §1, §2, §3, §4, §5
# [9] = target: Thermosynechococcus elongatus PKUAC-SCTE542 protoporphyrinogen IX oxidase CyPPO19 (SEQ ID NO: 1) variant V305M (MBP fusion) (Thermosynechococcus sichuanensis, UniProt A0A7D6JSC1, V305M); assay: PPO enzyme inhibition assay (IC50 for herbicides), CyPPO19 V305M fused to MBP; type: biochemical
# [10] = target: Thermosynechococcus vulcanus NIES-2134 protoporphyrinogen IX oxidase CyPPO18 (SEQ ID NO: 3) variant A167C (MBP fusion) (Thermosynechococcus vestitus, UniProt Q8DLV2, A167C); assay: PPO enzyme inhibition assay (IC50 for herbicides), CyPPO18 A167C fused to MBP; type: biochemical; settings: 50 μM protoporphyrinogen IX, pH 7.5, room temperature, 30 min
# [11] = target: Thermosynechococcus vulcanus NIES-2134 protoporphyrinogen IX oxidase CyPPO18 (SEQ ID NO: 3) variant L327T (MBP fusion) (Thermosynechococcus vestitus, UniProt Q8DLV2, L327T); assay: PPO enzyme inhibition assay (IC50 for herbicides), CyPPO18 L327T fused to MBP; type: biochemical; settings: 50 μM protoporphyrinogen IX, pH 7.5, room temperature, 30 min
# [12] = test system: PPO-deficient BT3 E. coli (ΔPPO) transformed with CyPPO19 variant R89A+F360I (Thermosynechococcus elongatus PKUAC-SCTE542, SEQ ID NO: 1); assay: Herbicide tolerance test in E. coli, CyPPO19 R89A+F360I; type: cell-based; settings: LB agar, 0 to 2,000 μM herbicide, 37° C., 16-20 hours
# Text: as §1, §2, §3, §4, §5
# Chain of Thermosynechococcus elongatus PKUAC-SCTE542 protoporphyrinogen IX oxidase CyPPO19 (SEQ ID NO: 1) variant A167C (MBP fusion) (A0A7D6JSC1 entry or part of it A167C): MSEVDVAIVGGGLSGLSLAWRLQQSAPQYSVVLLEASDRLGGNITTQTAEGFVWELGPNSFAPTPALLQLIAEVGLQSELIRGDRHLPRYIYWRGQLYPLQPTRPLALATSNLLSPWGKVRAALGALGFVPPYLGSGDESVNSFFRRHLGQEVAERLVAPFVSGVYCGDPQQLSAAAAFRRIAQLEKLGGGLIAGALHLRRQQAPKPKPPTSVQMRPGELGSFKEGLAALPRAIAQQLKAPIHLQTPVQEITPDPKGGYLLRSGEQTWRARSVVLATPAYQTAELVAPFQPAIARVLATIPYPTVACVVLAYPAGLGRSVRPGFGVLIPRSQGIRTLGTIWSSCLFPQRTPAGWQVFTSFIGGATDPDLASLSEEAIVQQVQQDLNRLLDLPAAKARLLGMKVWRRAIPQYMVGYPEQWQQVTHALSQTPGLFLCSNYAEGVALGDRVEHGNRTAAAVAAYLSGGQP
# Chain of Thermosynechococcus vulcanus NIES-2134 protoporphyrinogen IX oxidase CyPPO18 (SEQ ID NO: 3) variant R89A (MBP fusion) (Q8DLV2 entry or part of it R89A): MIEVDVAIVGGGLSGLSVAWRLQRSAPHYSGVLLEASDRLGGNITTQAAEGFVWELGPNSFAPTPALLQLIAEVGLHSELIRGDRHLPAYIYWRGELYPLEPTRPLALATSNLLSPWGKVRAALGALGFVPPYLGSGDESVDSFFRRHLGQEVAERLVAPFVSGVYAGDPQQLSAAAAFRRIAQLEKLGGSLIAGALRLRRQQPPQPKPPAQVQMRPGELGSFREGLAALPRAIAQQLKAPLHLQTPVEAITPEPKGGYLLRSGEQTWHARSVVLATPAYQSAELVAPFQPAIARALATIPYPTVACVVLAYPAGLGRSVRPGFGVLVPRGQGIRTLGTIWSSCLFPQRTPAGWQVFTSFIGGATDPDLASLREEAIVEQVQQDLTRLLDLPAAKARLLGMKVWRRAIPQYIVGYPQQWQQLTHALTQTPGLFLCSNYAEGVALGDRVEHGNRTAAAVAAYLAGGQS
# Chain of Thermosynechococcus vulcanus NIES-2134 protoporphyrinogen IX oxidase CyPPO18 (SEQ ID NO: 3) variant A167C (MBP fusion) (Q8DLV2 entry or part of it A167C): as the sequence (Q8DLV2 entry or part of it R89A) above, with A89R, A167C counted along it
# Chain of Thermosynechococcus vulcanus NIES-2134 protoporphyrinogen IX oxidase CyPPO18 (SEQ ID NO: 3) variant L327T (MBP fusion) (Q8DLV2 entry or part of it L327T): as the sequence (Q8DLV2 entry or part of it R89A) above, with A89R, L327T counted along it
# Chain of Thermosynechococcus elongatus PKUAC-SCTE542 protoporphyrinogen IX oxidase CyPPO19 (SEQ ID NO: 1) variant V305M (MBP fusion) (A0A7D6JSC1 entry or part of it V305M): as the sequence (A0A7D6JSC1 entry or part of it A167C) above, with C167A, V305M counted along it
SMILES,tolerance level (relative growth of variant to wild type) [1],tolerance level (relative growth of variant to wild type) [2],tolerance level (relative growth of variant to wild type) [3],IC50 [4] [nM],"IC50 ([5]; CyPPO19 A167C, 50 μM protoporphyrinogen IX, pH 7.5, room temperature, 30 min) [nM]","IC50 ([6]; CyPPO19 WT, 50 μM protoporphyrinogen IX, pH 7.5, room temperature, 30 min) [nM]",tolerance level (relative growth of variant to wild type) [7],tolerance level (relative growth of variant to wild type) [8],"IC50 ([9]; CyPPO19 V305M, 50 μM protoporphyrinogen IX, pH 7.5, room temperature, 30 min) [nM]",IC50 [10] [nM],IC50 [11] [nM],tolerance level (relative growth of variant to wild type) [12],IC50 [5] [nM],IC50 [6] [nM],IC50 [9] [nM]
Cc1nn(-c2cc(CC(Cl)C(=O)O)c(Cl)cc2F)c(=O)n1C(F)F (stereo not drawn) [Carfentrazone],++,+,++,872,3530,763,+,+,910,1880,723,+,,,
CCOc1cc(Oc2ccc(C(F)(F)F)cc2Cl)ccc1[N+](=O)[O-] [Oxyfluorfen],++,+,++,491,,,++,+,,570,3600,+,649,570,732
